This assay has as its target tau (Homo sapiens, UniProt P10636). As to the kind of experiment: MCE Phenols Library screening, tau biosensor cell seeding assay (AvZ). The class given is cell-based. The settings on record: for Z repl 1 / Z Repl 2: Z score; for Z repl 1 / raw data 1: replicate 1; for Z Repl 2 / raw data 2: replicate 2.
Where [1] appears, read: average Z score of the two replicates, MCE Phenols Library screen.
[2] abbreviates: average puncta of the two replicates.
Setting [3] is: average Z score of the two replicates, tau seeding.
[4] abbreviates: average Z score of two replicates, Phenols Library screen.

Chain of tau (P10636 623-695 limits assumed): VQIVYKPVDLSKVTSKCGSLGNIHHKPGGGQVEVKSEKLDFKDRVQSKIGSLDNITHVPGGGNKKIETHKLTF

Turning to `COc1c(O)cc2oc(-c3ccccc3)cc(=O)c2c1O` [Oroxylin A], the “Z repl 1” value is given as -0.11 and the “Z Repl 2” value was -0.323. The “av Z” value under setting [1] is on record as -0.217. This compound showed an av puncta under setting [2] of 17171.6. Further, for the setting “raw puncta”, the “raw data 1” value stood at 25029.5 and the “raw data 2” value is listed as 9313.67.

On to `OC[C@H]1O[C@@H](Oc2cc(O)ccc2/C=C/c2cc(O)cc(O)c2)[C@H](O)[C@@H](O)[C@@H]1O` [Oxyresveratrol 2-O-?-D-glucopyranoside], for which the “Z repl 1” value is -0.859 and the “Z Repl 2” value was 0.047. Under setting [1], the “av Z” value was -0.406. Also, under setting [2], the av puncta is given as 14655.6. Besides, where the note is “raw puncta”, the “raw data 1” value is 16039.6 and the “raw data 2” value came out at 13271.6.

`Oc1cc(O)cc(/C=C/c2ccc(O)cc2O)c1` [Oxyresveratrol]: the “Z repl 1” value is given as 0.048 and the “Z Repl 2” value is -0.792. For the same compound, the “av Z” value under setting [1] is on record as -0.372. The same compound came in with an av puncta under setting [2] of 15614.1. Further, under “raw puncta”, the “raw data 1” value is listed as 26923.9 and the “raw data 2” value came out at 4304.18.

As to `COc1ccc(C(C)=O)c(O)c1` [Paeonol], the “Z repl 1” value worked out at 0.101 and the “Z Repl 2” value was 0.444. Further, the “AvZ (average z score of seeding, SDs from the mean level of seeding)” value (10 μM phenol in cell cultures, AD brain homogenate preincubated 16 hours, two biological replicates, positive = catalyzes seeding, negative = inhibits) stood at 0.272. This compound also registered an av puncta (average of raw data 1 and 2) of 22534.1. Under “puncta”, the “raw data 1” value was 27565 and the “raw data 2” value was 17503.1.

As for `O=C(O)CC(O)(CC(=O)OCc1ccc(O[C@@H]2O[C@H](CO)[C@@H](O)[C@H](O)[C@H]2O)cc1)C(=O)OCc1ccc(O[C@@H]2O[C@H](CO)[C@@H](O)[C@H](O)[C@H]2O)cc1` (some centres unmarked) [Parishin B], the “Z repl 1” value is 0.462 and the “Z Repl 2” value was determined as 0.318. Moreover, the “av Z” value under setting [3] amounted to 0.39. Also, where the note is “average of raw data 1 and 2”, the av puncta is 24029.7. For the same compound, where the note is “puncta”, the “raw data 1” value is reported as 31895.3 and the “raw data 2” value amounted to 16164.

For the compound `O=C(O)CC(O)(CC(=O)OCc1ccc(O[C@@H]2O[C@H](CO)[C@@H](O)[C@H](O)[C@H]2O)cc1)C(=O)O` (some centres unmarked) [Parishin E], the “Z repl 1” value is listed as -1.04 and the “Z Repl 2” value is listed as -0.216. Further, the “av Z” value under setting [1] is on record as -0.628. Under setting [2], this compound displayed an av puncta of 12158.4. For the same compound, for the setting “puncta”, the “raw data 1” value stood at 13862 and the “raw data 2” value is 10454.8.

Turning to `COc1ccc(-c2cc(=O)c3c(O)c(OC)c(O)cc3o2)cc1` [Pectolinarigenin], the “Z repl 1” value is recorded as -0.106 and the “Z Repl 2” value worked out at 0.876. In addition, under setting [3], the “av Z” value is listed as 0.385. The compound further yielded an av puncta (average of raw data 1 and 2) of 23601.4. Also, for the setting “puncta”, the “raw data 1” value is listed as 25077.3 and the “raw data 2” value turned out to be 22125.4.

`COc1ccc(-c2cc(=O)c3c(O)c(OC)c(O[C@@H]4O[C@H](CO[C@@H]5O[C@@H](C)[C@H](O)[C@@H](O)[C@H]5O)[C@@H](O)[C@H](O)[C@H]4O)cc3o2)cc1` [Pectolinarin]: the “Z repl 1” value was determined as 0.677 and the “Z Repl 2” value is reported as -0.144. Moreover, the “av Z” value under setting [3] is listed as 0.266. Where the note is “average of raw data 1 and 2”, this compound displayed an av puncta of 22850.6. Moreover, where the note is “puncta”, the “raw data 1” value came out at 34472.8 and the “raw data 2” value was 11228.4.

As to `O=C(O)Cc1cc(O)ccc1O[C@@H]1O[C@H](CO)[C@@H](O)[C@H](O)[C@H]1O` [Phaseoloidin], the “Z repl 1” value is recorded as -0.056 and the “Z Repl 2” value is -0.658. For the same compound, under setting [1], the “av Z” value is listed as -0.357. For the same compound, the av puncta under setting [2] turned out to be 15704.2. Besides, for the setting “raw puncta”, the “raw data 1” value stood at 25674.3 and the “raw data 2” value came to 5734.06.

Take `COc1cc2c(cc1O)C[C@H]1c3cc(O)c(OC)cc3CC[N@@+]1(C)C2.[Cl-]` [Phellodendrine (chloride)]: the “Z repl 1” value came to 0.263 and the “Z Repl 2” value is given as -0.68. In addition, the “av Z” value under setting [1] was -0.208. Under setting [2], this compound showed an av puncta of 17505.3. Further, under “raw puncta”, the “raw data 1” value worked out at 29504.3 and the “raw data 2” value was found to be 5506.25.

Consider `O=C(CCc1ccc(O)cc1)c1c(O)cc(O)cc1O` [Phloretin], for which the “Z repl 1” value is -0.858 and the “Z Repl 2” value is -0.477. Further, the “av Z” value under setting [1] is listed as -0.667. The same compound displayed an av puncta under setting [2] of 11860.9. Further, for the setting “puncta”, the “raw data 1” value stood at 16053.8 and the “raw data 2” value is on record as 7668.02.

For `O=C(CCc1ccc(O)cc1)c1c(O)cc(O)cc1O[C@@H]1O[C@H](CO)[C@@H](O)[C@H](O)[C@H]1O` [Phlorizin], the “Z repl 1” value is listed as -0.297 and the “Z Repl 2” value was -0.278. Under setting [1], the “av Z” value is -0.288. Further, the av puncta under setting [2] is given as 16285.7. Also, under “raw puncta”, the “raw data 1” value is reported as 22779.3 and the “raw data 2” value is reported as 9792.07.

Consider `OC[C@H]1O[C@@H](Oc2cc(/C=C/c3cc(O)cc(O)c3)ccc2O)[C@H](O)[C@@H](O)[C@@H]1O` [Piceatannol 3'-O-glucoside], for which the “Z repl 1” value turned out to be 0.407 and the “Z Repl 2” value turned out to be 0.408. Further, the “av Z” value under setting [3] turned out to be 0.407. Moreover, the av puncta (average of raw data 1 and 2) amounted to 24178.5. Besides, where the note is “puncta”, the “raw data 1” value came to 31229.6 and the “raw data 2” value came out at 17127.3.

Consider `Oc1cc(O)cc(/C=C/c2ccc(O)c(O)c2)c1` [Piceatannol], for which the “Z repl 1” value was -1.302. Under setting [1], the “av Z” value is listed as -1.235. The av puncta (average of raw data 1 and 2) came to 5506.01. Besides, for the setting “puncta”, the “raw data 1” value is recorded as 10717.8 and the “raw data 2” value was found to be 294.245.

Turning to `COc1cc(C(=O)O[C@H]2[C@@H]3C=CO[C@@H](O[C@@H]4O[C@H](CO)[C@@H](O)[C@H](O)[C@H]4O)[C@@H]3[C@@]3(CO)O[C@@H]23)ccc1O` [Picroside II], the “Z repl 1” value is -0.222 and the “Z Repl 2” value is reported as -0.853. The “av Z” value under setting [1] is given as -0.537. This compound also returned an av puncta under setting [2] of 13671.5. Under “puncta”, the “raw data 1” value is given as 23683.5 and the “raw data 2” value is reported as 3659.57.

With `CC(=O)O[C@H]1C(=O)c2c(O)cc(O)cc2O[C@@H]1c1ccccc1` [Pinobanksin 3-acetate], the “Z repl 1” value stood at 0.2 and the “Z Repl 2” value was -0.125. The “av Z” value under setting [4] is recorded as 0.037. For the same compound, for the setting “average of raw data 1 and 2”, the av puncta was 20089.3. Besides, where the note is “puncta”, the “raw data 1” value was determined as 28746.2 and the “raw data 2” value is recorded as 11432.4.

Consider `COc1cc(O)cc(/C=C/c2ccc(O)cc2)c1` [Pinostilbene], for which the “Z repl 1” value is on record as 0.091 and the “Z Repl 2” value was -0.704. The “av Z” value under setting [1] was -0.306. The compound also displayed an av puncta under setting [2] of 16345.6. Further, where the note is “raw puncta”, the “raw data 1” value was 27446.2 and the “raw data 2” value is 5245.02.

As to `COc1cc(O)c2c(c1)O[C@H](c1ccccc1)CC2=O` [Pinostrobin], the “Z repl 1” value is -0.797 and the “Z Repl 2” value is listed as -0.047. Moreover, the “av Z” value under setting [1] is given as -0.422. Under setting [2], this compound registered an av puncta of 14520.5. Moreover, under “raw puncta”, the “raw data 1” value worked out at 16779.4 and the “raw data 2” value was 12261.6.

Consider `O=C1C[C@@H](c2cc(O)c(O)c(O[C@@H]3O[C@H](CO)[C@@H](O)[C@H](O)[C@H]3O)c2)Oc2cc(O)cc(O)c21` [Plantagoside], for which the “Z repl 1” value was 0.333 and the “Z Repl 2” value is -0.026. Under setting [3], the “av Z” value was 0.153. For the setting “average of raw data 1 and 2”, this compound registered an av puncta of 21412.5. Moreover, where the note is “puncta”, the “raw data 1” value was determined as 30340.8 and the “raw data 2” value worked out at 12484.2.

On to `CC1=CC(=O)c2c(O)cccc2C1=O` [Plumbagin], for which the “Z repl 1” value was -2.104 and the “Z Repl 2” value is reported as -0.904. The “av Z” value under setting [1] is listed as -1.504. The av puncta (average of raw data 1 and 2) came out at 2099.32. Also, where the note is “puncta”, the “raw data 1” value is given as 1092.19 and the “raw data 2” value is 3106.45.

As for `COc1cc2c(=O)c3c(O)c([C@@H]4O[C@H](CO[C@@H]5OC[C@](O)(CO)[C@H]5O)[C@@H](O)[C@H](O)[C@H]4O)c(O)cc3oc2cc1O` [Polygalaxanthone III], the “Z repl 1” value is -0.439 and the “Z Repl 2” value is reported as 0.604. Besides, the “av Z” value under setting [4] amounted to 0.083. Further, the av puncta (average of raw data 1 and 2) came to 20150.3. Besides, for the setting “puncta”, the “raw data 1” value is 21083.3 and the “raw data 2” value was 19217.2.

For the compound `Oc1cc(O)c2c(c1)O[C@@]1(c3ccc(O)c(O)c3)Oc3cc(O)c4c(c3[C@@H]2[C@H]1O)O[C@H](c1ccc(O)c(O)c1)[C@@H](O)C4` [Procyanidin A1], the “Z repl 1” value turned out to be 0.114 and the “Z Repl 2” value was 0.572. In addition, the “av Z” value under setting [3] was 0.343. Under “average of raw data 1 and 2”, this compound had an av puncta of 23298.5. For the setting “puncta”, the “raw data 1” value is reported as 27718.4 and the “raw data 2” value was 18878.6.

Take `Oc1cc(O)c2c(c1)O[C@@]1(c3ccc(O)c(O)c3)Oc3cc(O)c4c(c3[C@@H]2[C@H]1O)O[C@H](c1ccc(O)c(O)c1)[C@H](O)C4` [Procyanidin A2]: the “Z repl 1” value was -0.531 and the “Z Repl 2” value was -0.919. In addition, the “av Z” value under setting [1] is -0.725. Under setting [2], this compound had an av puncta of 11465. For the same compound, for the setting “puncta”, the “raw data 1” value worked out at 19975.5 and the “raw data 2” value came out at 2954.48.

`Oc1cc(O)c2c(c1)O[C@H](c1ccc(O)c(O)c1)[C@H](O)[C@H]2c1c(O)cc(O)c2c1O[C@H](c1ccc(O)c(O)c1)[C@H](O)C2` [Procyanidin B2]: the “Z repl 1” value was -0.678 and the “Z Repl 2” value is -0.711. In addition, the “av Z” value under setting [1] is listed as -0.695. The compound also displayed an av puncta under setting [2] of 11690.3. Further, where the note is “puncta”, the “raw data 1” value turned out to be 18204.5 and the “raw data 2” value was determined as 5175.99.

Turning to `Oc1cc(O)c2c(c1)O[C@H](c1ccc(O)c(O)c1)[C@H](O)[C@H]2c1c(O)cc(O)c2c1O[C@H](c1ccc(O)c(O)c1)[C@H](O)[C@H]2c1c(O)cc(O)c2c1O[C@H](c1ccc(O)c(O)c1)[C@H](O)C2` [Procyanidin C1], the “Z repl 1” value came out at 0.76 and the “Z Repl 2” value came out at 1.6. Also, the “av Z” value (average Z score of the two replicates, tau biosensor seeding, MCE Phenols Library screen) is 1.18. This compound also showed an av puncta (average of raw data 1 and 2) of 32664.3. Moreover, for the setting “puncta”, the “raw data 1” value stood at 35473.6 and the “raw data 2” value is 29854.9.

The values are drawn from publication PMC11784839, “Monoaminergic neurotransmitters are bimodal effectors of tau aggregation” (Science Advances, 2025).
